Molecular target: T1, human FAAH (Homo sapiens, UniProt O00519)
T1 construct: expressed in transfected cells; host or cells: H4 cells (H4-FAAH, Geneticin-selected); crude membrane homogenates
T1 sequence (O00519 1-579): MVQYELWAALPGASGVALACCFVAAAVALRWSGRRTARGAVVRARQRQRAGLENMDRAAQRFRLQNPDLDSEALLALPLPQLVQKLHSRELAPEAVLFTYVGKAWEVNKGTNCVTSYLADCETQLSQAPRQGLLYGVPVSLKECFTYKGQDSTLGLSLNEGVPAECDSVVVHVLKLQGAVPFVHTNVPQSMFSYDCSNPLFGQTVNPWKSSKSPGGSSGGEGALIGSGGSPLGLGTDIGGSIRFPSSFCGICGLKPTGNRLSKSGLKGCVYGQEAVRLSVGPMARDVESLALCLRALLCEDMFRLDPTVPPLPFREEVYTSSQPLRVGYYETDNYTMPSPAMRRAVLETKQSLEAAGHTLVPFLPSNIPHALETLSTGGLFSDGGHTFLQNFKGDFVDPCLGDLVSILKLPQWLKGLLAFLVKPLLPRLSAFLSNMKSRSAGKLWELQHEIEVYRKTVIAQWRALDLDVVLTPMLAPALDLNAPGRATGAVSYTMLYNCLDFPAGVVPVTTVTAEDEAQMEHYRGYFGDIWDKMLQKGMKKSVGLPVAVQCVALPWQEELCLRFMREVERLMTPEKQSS
Assay: FAAH activity in membrane homogenates of H4-FAAH cells, [3H]-anandamide hydrolysis
Type: biochemical
Conditions: H4-FAAH cell membranes, 10 μM anandamide, room temperature, one hour; read-out: IC50
Procedure: Homogenates of crude membranes were prepared from H4 cells that express transfected human FAAH (H4-FAAH cells). Briefly, cells were grown in DMEM supplemented with 10% FBS and Geneticin at a final concentration of 500 μg/ml (Gibco BRL, Rockville, Md.). Confluent cultures of H4-FAAH cells were rinsed twice with phosphate-buffered saline [138 mM NaCl, 4.1 mM KCl, 5.1 mM Na2PO4, 1.5 mM KH2PO4 (pH 7.5), 37° C.] and incubated for 5 to 10 minutes at 4° C. in lysis buffer [1 mM sodium bicarbonate]. Cells were transferred from plates to polypropylene tubes (16×100 mm), homogenized and centrifuged at 32,000×g for 30 minutes. Pellets were resuspended by homogenization in lysis buffer and centrifuged at 32,000×g for 30 minutes. Pellets were resuspended in lysis buffer (15-20 μg protein/ml) then stored at −80° C. until needed. On the day of an experiment, membranes were diluted to 2.67 μg protein/ml in 125 mM Tris-Cl, pH 9.0.
Activity of FAAH was measured using a modification of the method described by Omeir et al., 1995 (Life Sci 56:1999, 1995). Membrane homogenates (240 ng protein) were incubated at room temperature for one hour with 1.67 nM anandamide [ethanolamine 1-^3H] (available from American Radiolabeled Chemical Inc., St Louis, Mo.) and 10 μM anandamide (available from Sigma/RBI, St. Louis, Mo.) in the absence and presence of inhibitors. The reaction was stopped by the addition of 1 volume of a solution of 1:1 methanol and dichloroethane. The mixture was shaken and then centrifuged at 1000×g for 15 minutes to separate the aqueous and organic phases. An aliquot of the aqueous phase, containing [^3H]-ethanolamine was withdrawn and counted by scintillation spectroscopy. Data were expressed as the percentage of [^3H]-ethanolamine formed versus vehicle, after subtraction of the background radioactivity determined in the presence of 10 μM arachidonyl trifluoromethyl ketone (ATFMK), an inhibitor of FAAH. IC50 values were determined using a four-parameter logistic equation for dose-response curves.

Structure (SMILES)	IC50
CCCCCCOc1ccc(NC(=O)O/N=C/c2ccccc2)cc1 [Example 23, Benzaldehyde, O-[[(4-hexyloxyphenyl)amino]carbonyl]oxime]	< 10 nM
CCCCCCOc1ccc(NC(=O)O/N=C/c2ccc(F)cc2)cc1 [Example 24, 4-Fluorobenzaldehyde, O-[[(4-hexyloxyphenyl)amino]carbonyl]oxime]	< 10 nM
CCCCCCOc1ccc(NC(=O)O/N=C/c2cccnc2)cc1 [Example 25, 3-Pyridinecarboxaldehyde, O-[[(4-hexyloxyphenyl)amino]carbonyl]oxime]	< 10 nM
CCCCCCCOc1ccc(NC(=O)ON=C(C)C)cc1 [Example 26, 2-Propanone, O-[[(4-heptyloxyphenyl)amino]carbonyl]oxime]	< 10 nM
CCCCCCCOc1ccc(NC(=O)O/N=C/c2ccccc2)cc1 [Example 27, Benzaldehyde, O-[[(4-heptyloxyphenyl)amino]carbonyl]oxime]	< 10 nM
CCCCCCCOc1ccc(NC(=O)O/N=C/c2ccc(F)cc2)cc1 [Example 28, 4-Fluorobenzaldehyde, O-[[(4-heptyloxyphenyl)amino]carbonyl]oxime]	< 10 nM
CCCCCCCCOc1ccc(NC(=O)ON=C(C)C)cc1 [Example 29, 2-Propanone, O-[[(4-octyloxyphenyl)amino]carbonyl]oxime]	< 10 nM
CCCCCCCCOc1ccc(NC(=O)O/N=C/c2cccnc2)cc1 [Example 30, 3-Pyridinecarboxaldehyde, O-[[(4-octyloxyphenyl)amino]carbonyl]oxime]	< 10 nM
CCCCCCCCCOc1ccc(NC(=O)ON=C(C)C)cc1 [Example 31, 2-Propanone, O-[[(4-nonyloxyphenyl)amino]carbonyl]oxime]	< 10 nM
CCCCCCCCCCOc1ccc(NC(=O)ON=C(C)C)cc1 [Example 32, 2-Propanone, O-[[(4-decyloxyphenyl)amino]carbonyl]oxime]	< 10 nM
CCCCCCCCCCOc1ccc(NC(=O)O/N=C/c2ccccc2)cc1 [Example 33, Benzaldehyde, O-[[(4-decyloxyphenyl)amino]carbonyl]oxime]	< 10 nM
CCCCCCCCCCOc1ccc(NC(=O)O/N=C/c2ccc(F)cc2)cc1 [Example 34, 4-Fluorobenzaldehyde, O-[[(4-decyloxyphenyl)amino]carbonyl]oxime]	< 10 nM
CCCCCCCCCCOc1ccc(NC(=O)O/N=C/c2cccnc2)cc1 [Example 35, 3-Pyridinecarboxaldehyde, O-[[(4-decyloxyphenyl)amino]carbonyl]oxime]	< 10 nM
CCCCCCCCCCCOc1ccc(NC(=O)ON=C(C)C)cc1 [Example 36, 2-Propanone, O-[[(4-undecyloxyphenyl)amino]carbonyl]oxime]	< 10 nM
CCCCCCCCCCCOc1ccc(NC(=O)O/N=C/c2ccccc2)cc1 [Example 37, Benzaldehyde, O-[[(4-undecyloxyphenyl)amino]carbonyl]oxime]	< 10 nM
CCCCCCCCCCCOc1ccc(NC(=O)O/N=C/c2ccc(F)cc2)cc1 [Example 38, 4-Fluorobenzaldehyde, O-[[(4-undecyloxyphenyl)amino]carbonyl]oxime]	< 10 nM
CCCCOc1ccc(NC(=O)O/N=C/c2ccccc2)cc1 [Example 39, Benzaldehyde, O-[[(4-butoxyphenyl)amino]carbonyl]oxime]	< 10 nM
CCCCCCCCCCCCOc1ccc(NC(=O)ON=C(C)C)cc1 [Example 40, 2-Propanone, O-[[(4-dodecyloxyphenyl)amino]carbonyl]oxime]	< 10 nM
CCCCCCCCCCCCOc1ccc(NC(=O)O/N=C/c2ccccc2)cc1 [Example 41, Benzaldehyde, O-[[(4-dodecyloxyphenyl)amino]carbonyl]oxime]	< 10 nM

Structure (SMILES)	IC50
CCCCCCCCCCCCOc1ccc(NC(=O)O/N=C/c2ccc(F)cc2)cc1 [Example 42, 4-Fluorobenzaldehyde, O-[[(4-dodecyloxyphenyl)amino]carbonyl]oxime]	< 10 nM
CCCCCCCCCCCCOc1ccc(NC(=O)O/N=C/c2cccnc2)cc1 [Example 43, 3-Pyridinecarboxaldehyde, O-[[(4-dodecyloxyphenyl)amino]carbonyl]oxime]	< 10 nM
CCCCOc1ccc(NC(=O)O/N=C/c2cccnc2)cc1 [Example 44, 3-Pyridinecarboxaldehyde, O-[[(4-butoxyphenyl)amino]carbonyl]oxime]	10 to 100 nM
CCCCCCCCOc1ccc(NC(=O)O/N=C/c2ccccc2)cc1 [Example 45, Benzaldehyde, O-[[(4-octyloxyphenyl)amino]carbonyl]oxime]	< 10 nM
CCCCCCCCOc1ccc(NC(=O)O/N=C/c2ccc(F)cc2)cc1 [Example 46, 4-Fluorobenzaldehyde, O-[[(4-octyloxyphenyl)amino]carbonyl]oxime]	< 10 nM
CCCCCCCCCOc1ccc(NC(=O)O/N=C/c2ccccc2)cc1 [Example 47, Benzaldehyde, O-[[(4-nonyloxyphenyl)amino]carbonyl]oxime]	< 10 nM
CCCCCCCCCOc1ccc(NC(=O)O/N=C/c2ccc(F)cc2)cc1 [Example 48, 4-Fluorobenzaldehyde, O-[[(4-nonyloxyphenyl)amino]carbonyl]oxime]	< 10 nM
CCCCCCCCCOc1ccc(NC(=O)O/N=C/c2ccc(F)c(F)c2)cc1 [Example 49, 3,4-Difluorobenzaldehyde, O-[[(4-nonyloxyphenyl)amino]carbonyl]oxime]	< 10 nM
CCCCCCCCCOc1ccc(NC(=O)O/N=C/c2c(F)cccc2F)cc1 [Example 50, 2,6-Difluorobenzaldehyde, O-[[(4-nonyloxyphenyl)amino]carbonyl]oxime]	< 10 nM
CCCCCCCCCOc1ccc(NC(=O)O/N=C/c2ccc(F)cc2F)cc1 [Example 51, 2,4-Difluorobenzaldehyde, O-[[(4-nonyloxyphenyl)amino]carbonyl]oxime]	< 10 nM
CCCCCCCCCOc1ccc(NC(=O)O/N=C/c2cccc(F)c2)cc1 [Example 52, 3-Fluorobenzaldehyde, O-[[(4-nonyloxyphenyl)amino]carbonyl]oxime]	< 10 nM
CCCCCCCCCOc1ccc(NC(=O)O/N=C/c2ccc(C(F)(F)F)cc2)cc1 [Example 53, 4-(Trifluoromethyl)benzaldehyde, O-[[(4-nonyloxyphenyl)amino]carbonyl]oxime]	< 10 nM
CCCCCCCCCOc1ccc(NC(=O)O/N=C/c2cccc(C(F)(F)F)c2F)cc1 [Example 54, 2-Fluoro-3-(trifluoromethyl)benzaldehyde, O-[[(4-nonyloxyphenyl)amino]carbonyl]oxime]	< 10 nM
CCCCCCCCCOc1ccc(NC(=O)O/N=C/c2cccc(F)c2F)cc1 [Example 55, 2,3-Difluorobenzaldehyde, O-[[(4-nonyloxyphenyl)amino]carbonyl]oxime]	< 10 nM
CCCCCCCCCOc1ccc(NC(=O)O/N=C/c2cc(F)c(F)cc2F)cc1 [Example 56, 2,4,5-Trifluorobenzaldehyde, O-[[(4-nonyloxyphenyl)amino]carbonyl]oxime]	< 10 nM
CCCCCCCCCOc1ccc(NC(=O)O/N=C/c2cc(C(F)(F)F)ccc2F)cc1 [Example 57, 2-Fluoro-5-(trifluoromethyl)benzaldehyde, O-[[(4-nonyloxyphenyl)amino]carbonyl]oxime]	< 10 nM
O=C(Nc1ccc(OCCCN2CCOCC2)cc1)O/N=C/c1ccc(F)cc1 [Example 58, 4-Fluorobenzaldehyde, O-[[4-[3-(4-morpholinyl)propoxyphenyl]amino]carbonyl]oxime]	> 500 nM
CCCCOc1ccc(NC(=O)O/N=C/c2ccc([N+](=O)[O-])cc2)cc1 [Example 59, 4-Nitrobenzaldehyde, O-[[(4-butoxyphenyl)amino]carbonyl]oxime]	< 10 nM
CCCCOc1ccc(NC(=O)ON=C(C)C)cc1 [Example 60, 2-Propanone, O-[[(4-butoxyphenyl)amino]carbonyl]oxime]	10 to 100 nM
